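Step 1: Grow cells in 96-well plates. Step 2: Expose to compound for 48 hours at 5 concentrations. Step 3: Interpolate endpoints linearly; if unreached, use highest concentration. The concentration for 50% growth inhibition is given as GI50.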 Calls of active or inactive are those of the source. Cut-off read from the data, not from the text of the source: active = GI50 up to about 1.1 µM and inactive = higher.
Experiments:
Assay in all cases: DTP human tumour cell line panel, 48 h
OVCAR-5 = system: OVCAR-5
OVCAR-3 = system: OVCAR-3
UACC-257 = system: UACC-257
TK-10 = system: TK-10
SK-MEL-28 = system: SK-MEL-28
HCT-116 = system: HCT-116
SK-MEL-5 = system: SK-MEL-5
RXF 393 = system: RXF 393
HCT-15 = system: HCT-15
COLO 205 = system: COLO 205
DLD-1 = system: DLD-1
A549 = system: A549
CAKI-1 = system: CAKI-1
EKVX = system: EKVX
786-0 = system: 786-0
T47D = system: T47D
MDA-N = system: MDA-N
PC-3 = system: PC-3
BT-549 = system: BT-549
MDA-MB-435 = system: MDA-MB-435

SMILES	GI50 (OVCAR-5)	GI50 (OVCAR-3)	GI50 (UACC-257)	GI50 (TK-10)	GI50 (SK-MEL-28)	GI50 (HCT-116)	GI50 (SK-MEL-5)	GI50 (RXF 393)	GI50 (HCT-15) [µM]	GI50 (COLO 205)	GI50 (DLD-1)	GI50 (A549)	GI50 (CAKI-1)	GI50 (EKVX)	GI50 (786-0)	GI50 (T47D)	GI50 (MDA-N)	GI50 (PC-3)	GI50 (BT-549)	GI50 (MDA-MB-435)
COC(=O)CCC(=O)CC(=O)C(=O)Nc1ccc(F)cc1	> 100 µM (inactive)	> 100 µM (inactive)	> 100 µM (inactive)	> 100 µM (inactive)	> 100 µM (inactive)	> 100 µM (inactive)	> 100 µM (inactive)	54 µM (inactive)	> 100	> 100 µM (inactive)	> 100 µM (inactive)	> 100 µM (inactive)	> 100 µM (inactive)	> 100 µM (inactive)	> 100 µM (inactive)					
O=S1(=O)NN=C(NCc2ccc(Cl)cc2)c2ccccc21	> 100 µM (inactive)	> 100 µM (inactive)	> 100 µM (inactive)			> 100 µM (inactive)	> 100 µM (inactive)	30.5 µM (inactive)	67	> 100 µM (inactive)	95.1 µM (inactive)	> 100 µM (inactive)	> 100 µM (inactive)	46.9 µM (inactive)	54.5 µM (inactive)					
C=CC1=CSNN1	> 100 µM (inactive)	> 100 µM (inactive)	> 100 µM (inactive)	> 100 µM (inactive)	> 100 µM (inactive)		> 100 µM (inactive)	> 100 µM (inactive)	> 100	> 100 µM (inactive)	> 100 µM (inactive)	> 100 µM (inactive)	> 100 µM (inactive)	> 100 µM (inactive)	> 100 µM (inactive)					
COC(=O)C1=Cc2cn(S(=O)(=O)c3ccc(C)cc3)c3cccc(c23)C(C=C(C)C)N1C(C)=O (configuration not stated)	> 100 µM (inactive)	9.14 µM (inactive)	11.3 µM (inactive)	38.9 µM (inactive)	> 10 µM (inactive)	11.1 µM (inactive)	10.5 µM (inactive)	13.8 µM (inactive)		4.71 µM (inactive)	14.7 µM (inactive)	13.6 µM (inactive)	12.6 µM (inactive)	> 100 µM (inactive)	> 100 µM (inactive)					
CC(C)(C)OC(=O)NCCc1cccc2c1oc1c(CCC(=O)O)cccc12	> 100 µM (inactive)	50.7 µM (inactive)	> 100 µM (inactive)	> 100 µM (inactive)	> 100 µM (inactive)	> 100 µM (inactive)	> 100 µM (inactive)	> 100 µM (inactive)	> 100	> 100 µM (inactive)	> 100 µM (inactive)	> 100 µM (inactive)	> 100 µM (inactive)		> 100 µM (inactive)					
C=C1CC2CC[C@@]34C[C@@H]5O[C@@H]6C(O[C@H]7CC[C@H](CC(=O)OC8[C@@H](C)C9OC%10C[C@]%11(C[C@@H]%12O[C@@]%13(C[C@@H](C)[C@@H]%12O%11)C[C@H](C)[C@@H]%11OC%12CC(C(O)CO)OC%12C[C@@H]%11O%13)OC%10CC9O[C@H]8C[C@H]8O[C@@H](CC[C@@H]1O2)C[C@@H](C)C8=C)O[C@@H]7[C@@H]6O3)C5O4 (some centres not stated)	0.00904 µM (active)	0.000279 µM (active)	0.000262 µM (active)	0.00863 µM (active)	0.0014 µM (active)	0.000582 µM (active)	0.000308 µM (active)	0.000685 µM (active)	0.000476	0.000667 µM (active)	0.00267 µM (active)	0.00168 µM (active)	0.000484 µM (active)	0.00405 µM (active)	0.00211 µM (active)					
Cc1[nH]c(O)nc1C(=O)c1ccc(-n2ccnc2)cc1	> 100 µM (inactive)	> 100 µM (inactive)	> 100 µM (inactive)		> 100 µM (inactive)	> 100 µM (inactive)	> 100 µM (inactive)	> 100 µM (inactive)	> 100		> 100 µM (inactive)	> 100 µM (inactive)	> 100 µM (inactive)		> 100 µM (inactive)					
O=C(O)CN(c1ccc(F)cc1)S(=O)(=O)c1ccccc1	> 100 µM (inactive)	> 100 µM (inactive)	> 100 µM (inactive)	> 100 µM (inactive)	> 100 µM (inactive)		> 100 µM (inactive)	> 100 µM (inactive)	> 100	> 100 µM (inactive)	> 100 µM (inactive)	> 100 µM (inactive)	> 100 µM (inactive)	> 100 µM (inactive)	> 100 µM (inactive)					
CC1OC(=O)C(C(C)C)NC(=O)C(C(C)C)OC(=O)C(C(C)C)NC(=O)C(C)OC(=O)C(C(C)C)NC(=O)C(C(C)C)OC(=O)C(C(C)C)NC(=O)C(C)OC(=O)C(C(C)C)NC(=O)C(C(C)C)OC(=O)C(C(C)C)NC1=O (configuration not stated)		0.0025 µM (active)	0.0025 µM (active)	< 0.0001 µM (active)	0.0025 µM (active)			0.00324 µM (active)	0.0034	0.0025 µM (active)	0.00326 µM (active)		0.00288 µM (active)	0.0198 µM (active)	< 0.0001 µM (active)	< 0.0001 µM (active)	< 0.0001 µM (active)	< 0.0001 µM (active)	< 0.0001 µM (active)	< 0.0001 µM (active)
O=C1c2ccccc2C(=O)c2c(O)c(O)cc(O)c21 [PURPURIN]	80.7 µM (inactive)	22.4 µM (inactive)	49.4 µM (inactive)	81.3 µM (inactive)	38.6 µM (inactive)	24.5 µM (inactive)	37.9 µM (inactive)	21.7 µM (inactive)	36.5	34 µM (inactive)	31.5 µM (inactive)	44.7 µM (inactive)	44 µM (inactive)	50.9 µM (inactive)	25.8 µM (inactive)					

From ChEMBL document CHEMBL1201862, “PubChem BioAssay data set” (2004)
